Experimental data taken from ChEMBL document CHEMBL1135592, “Structural determinants of A(3) adenosine receptor activation: nucleoside ligands at the agonist/antagonist boundary” (J Med Chem, 2002).

Tests used:
Adenosine receptor A3 [1] = target: T1, Adenosine receptor A3 (Rattus norvegicus, UniProt P28647); experiment: Binding affinity of adenosine derivative for recombinant rat Adenosine A3 receptor expressed on CHO cell
T1 sequence (P28647 whole entry): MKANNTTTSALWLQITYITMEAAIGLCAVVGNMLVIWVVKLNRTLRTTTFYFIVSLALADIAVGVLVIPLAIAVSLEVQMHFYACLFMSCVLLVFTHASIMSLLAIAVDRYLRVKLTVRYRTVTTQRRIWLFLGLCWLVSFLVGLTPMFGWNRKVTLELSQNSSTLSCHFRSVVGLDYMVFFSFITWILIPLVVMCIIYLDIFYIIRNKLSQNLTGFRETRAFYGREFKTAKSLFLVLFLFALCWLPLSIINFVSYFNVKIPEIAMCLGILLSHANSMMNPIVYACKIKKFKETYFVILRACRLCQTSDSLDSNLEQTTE

Adenosine receptor A3 [2] = target: T2, Adenosine receptor A3 (Homo sapiens, UniProt P0DMS8); experiment: Binding affinity towards human Adenosine A3 receptor wild type
T2 sequence (P0DMS8 whole entry): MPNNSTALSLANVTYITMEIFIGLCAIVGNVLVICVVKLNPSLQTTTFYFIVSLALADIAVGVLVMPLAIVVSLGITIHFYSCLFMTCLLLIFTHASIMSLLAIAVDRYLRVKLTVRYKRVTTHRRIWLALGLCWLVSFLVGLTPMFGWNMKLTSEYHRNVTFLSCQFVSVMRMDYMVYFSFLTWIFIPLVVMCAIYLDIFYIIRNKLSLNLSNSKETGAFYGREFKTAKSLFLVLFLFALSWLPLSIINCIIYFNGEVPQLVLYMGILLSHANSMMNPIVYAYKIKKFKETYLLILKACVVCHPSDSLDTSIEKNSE

Adenosine receptor A3 [3] = target: Adenosine receptor A3 (Homo sapiens, UniProt P0DMS8); experiment: Binding affinity towards Adenosine A3 receptor (W243 mutant receptor)
Adenosine receptor A3 [4] = target: T1, Adenosine receptor A3; experiment: Binding affinity of adenosine derivative for endogenous rat Adenosine A3 receptor of RBL-2H3
Adenosine receptor A3 [5] = target: T2, Adenosine receptor A3; experiment: Effect on forskolin-stimulated cyclic AMP production in intact chinese hamster ovary (CHO) cell expressing the human Adenosine A3 receptor; assay type: functional
Adenosine receptor A3 [6] = target: T2, Adenosine receptor A3; experiment: Affinity for human Adenosine A3 receptor expressed in CHO cell; assay type: cell-based
Adenosine receptor A3 [7] = target: Adenosine receptor A3 (Homo sapiens, UniProt P0DMS8, W243A); experiment: Binding affinity towards Adenosine A3 receptor (W243 A mutant receptor)
Adenosine receptor A3 [8] = target: Adenosine receptor A3 (Homo sapiens, UniProt P0DMS8, H95A); experiment: Binding affinity towards Adenosine A3 receptor (H95A mutant receptor)
Adenosine receptor A3 [9] = target: T2, Adenosine receptor A3; experiment: biochemical
Description: Bnding affinity in membrane of CHO cell stably expressing recombinant human Adenosine A3 receptor using [3H]8-ethyl-4-methyl-2-phenyl-(8R)-4,5,7,8-tetrahydro-1H-imidazo[2,1-i]-purin-5-one as radioligand

Adenosine receptor A3 [10] = target: T2, Adenosine receptor A3; experiment: biochemical; remark: listed apart in the source
Description: Binding affinity in membrane of CHO cell stably expressing recombinant human Adenosine A3 receptor in the presence of GTPgammaS using [3H]8-ethyl-4-methyl-2-phenyl-(8R)-4,5,7,8-tetrahydro-1H-imidazo[2,1-i]-purin-5-one as radioligand

Adenosine receptor A3 [11] = target: T2, Adenosine receptor A3; experiment: Affinity towards human Adenosine A3 receptor in CHO cell; assay type: cell-based

Sequence of Adenosine receptor A3 (Homo sapiens, UniProt P0DMS8, W243A) (P0DMS8 whole entry W243A): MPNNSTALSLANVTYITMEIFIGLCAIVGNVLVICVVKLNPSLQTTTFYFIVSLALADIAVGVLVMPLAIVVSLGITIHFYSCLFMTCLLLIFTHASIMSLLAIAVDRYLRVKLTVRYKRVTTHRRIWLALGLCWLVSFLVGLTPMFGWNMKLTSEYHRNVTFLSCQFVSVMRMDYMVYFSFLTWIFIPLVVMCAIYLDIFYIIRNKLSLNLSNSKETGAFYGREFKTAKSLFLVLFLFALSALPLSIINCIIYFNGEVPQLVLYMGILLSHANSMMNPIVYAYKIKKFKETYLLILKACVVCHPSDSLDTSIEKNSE
Sequence of Adenosine receptor A3 (Homo sapiens, UniProt P0DMS8, H95A) (P0DMS8 whole entry H95A): as the sequence (P0DMS8 whole entry W243A) above, with H95A, A243W counted along it

Row | Ki (Adenosine receptor A3 [2]) [nM] | EC50 (Adenosine receptor A3 [5]) [nM] | Ki (Adenosine receptor A3 [6]) [nM] | Ki (Adenosine receptor A3 [7]) [nM] | SMILES | further results
1 | 238 | – | – | – | CCCOC(=O)c1c(-c2ccccc2)nc(CC)c(C(=O)SCC)c1CCC | Ki (Adenosine receptor A3 [1]): 234 nM; Ki (Adenosine receptor A3 [3]): 2150 nM; Ki (Adenosine receptor A3 [4]): 357 nM
2 | – | 828 | 816 | – | CCCCn1c(=O)c2c(ncn2[C@@H]2O[C@H](C(=O)NC)[C@@H](O)[C@H]2O)n(CCCC)c1=O | –
3 | 3.9 | – | 9.2 | 2.7 | OCC12CC1C(n1cnc3c(NCc4cccc(I)c4)ncnc31)C(O)C2O (configuration not stated) | Ki (Adenosine receptor A3 [8]): 99 nM
4 | 2.1 | 5.4 | 1.3 | 1.2 | CNC(=O)C12CC1C(n1cnc3c(NCc4cccc(I)c4)ncnc31)C(O)C2O (configuration not stated) | –
5 | – | 1630 | 87 | – | Nc1nc(Cl)nc2c1ncn2[C@@H]1O[C@H](CO)[C@@H](O)[C@H]1O | –
6 | – | – | – | – | OC[C@H]1O[C@@H](n2cnc3c(NCc4cccc(I)c4)nc(Cl)nc32)[C@H](O)[C@@H]1O | Ki (Adenosine receptor A3 [1]): 1.6 nM; Ki (Adenosine receptor A3 [4]): 2.7 nM
7 | 83 | – | – | 46 | Nc1nc(Cl)nc2c1ncn2C1C(O)C(O)C2(CO)CC12 (configuration not stated) | –
8 | 1.7 | – | 1.9 | – | OCC12CC1C(n1cnc3c(NCc4cccc(I)c4)nc(Cl)nc31)C(O)C2O (configuration not stated) | Ki (Adenosine receptor A3 [1]): 1.3 nM; Ki (Adenosine receptor A3 [9]): 2.7 nM; Ki (Adenosine receptor A3 [3]): 1.3 nM; Ki (Adenosine receptor A3 [8]): 460 nM; Ki (Adenosine receptor A3 [4]): 2.9 nM; Ki (Adenosine receptor A3 [10]): 4 nM
9 | 584 | – | 572 | 490 | OCC12CC1C(n1cnc3c(NCc4cccc(I)c4)nc(Cl)nc31)C1OC12 (configuration not stated) | –
10 | – | – | – | – | O=C1NCC[C@@]12O[C@@H](n1cnc3c(NCc4cccc(I)c4)ncnc31)[C@H](O)[C@@H]2O | Ki (Adenosine receptor A3 [1]): 49 nM; Ki (Adenosine receptor A3 [4]): 51 nM
11 | – | – | – | – | CNC(=O)[C@H]1O[C@@H](n2cnc3c(NCc4cccc(I)c4)nc(Cl)nc32)[C@@H]2O[C@@H]21 | Ki (Adenosine receptor A3 [11]): 1100 nM
12 | – | 1.4 | 3.4 | – | CNC(=O)C12CC1C(n1cnc3c(NC)nc(Cl)nc31)C(O)C2O (configuration not stated) | –
13 | 142 | 242 | – | 137 | OC[C@H]1O[C@@H](n2cnc3c(NC4CCCC4)ncnc32)[C@H](O)[C@@H]1O [N6-CYCLOPENTYLADENOSINE] | Ki (Adenosine receptor A3 [8]): 615 nM

Row | SMILES | Ki (Adenosine receptor A3 [2]) [nM] | EC50 (Adenosine receptor A3 [5]) [nM] | Ki (Adenosine receptor A3 [6]) [nM] | Ki (Adenosine receptor A3 [7]) [nM] | further results
14 | Nc1nc(F)nc2c1ncn2[C@@H]1O[C@H](CO)[C@@H](O)[C@H]1O | – | 2660 | 99 | – | –
